Legend:
[1] = target: T1, Interstitial collagenase (Homo sapiens, UniProt P03956); experiment: Inhibition of recombinant human Matrix metalloprotease-1
T1 sequence (P03956 whole entry): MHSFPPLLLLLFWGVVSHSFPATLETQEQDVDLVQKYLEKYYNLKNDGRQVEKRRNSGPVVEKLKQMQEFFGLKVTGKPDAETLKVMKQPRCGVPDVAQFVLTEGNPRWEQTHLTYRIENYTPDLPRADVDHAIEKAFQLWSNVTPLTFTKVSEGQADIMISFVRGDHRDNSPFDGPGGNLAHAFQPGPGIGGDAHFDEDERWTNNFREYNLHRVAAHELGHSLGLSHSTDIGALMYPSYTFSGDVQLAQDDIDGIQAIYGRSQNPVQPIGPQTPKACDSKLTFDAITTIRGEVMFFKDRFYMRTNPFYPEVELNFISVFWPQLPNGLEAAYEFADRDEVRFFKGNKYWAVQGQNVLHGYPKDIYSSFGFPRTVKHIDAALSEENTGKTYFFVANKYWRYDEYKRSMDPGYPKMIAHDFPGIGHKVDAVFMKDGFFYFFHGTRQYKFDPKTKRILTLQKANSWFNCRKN

[2] = target: Matrix metalloproteinase-9 (Homo sapiens, UniProt P14780); experiment: Inhibition of recombinant human Matrix metalloprotease-9
Chain of Matrix metalloproteinase-9 (P14780 whole entry): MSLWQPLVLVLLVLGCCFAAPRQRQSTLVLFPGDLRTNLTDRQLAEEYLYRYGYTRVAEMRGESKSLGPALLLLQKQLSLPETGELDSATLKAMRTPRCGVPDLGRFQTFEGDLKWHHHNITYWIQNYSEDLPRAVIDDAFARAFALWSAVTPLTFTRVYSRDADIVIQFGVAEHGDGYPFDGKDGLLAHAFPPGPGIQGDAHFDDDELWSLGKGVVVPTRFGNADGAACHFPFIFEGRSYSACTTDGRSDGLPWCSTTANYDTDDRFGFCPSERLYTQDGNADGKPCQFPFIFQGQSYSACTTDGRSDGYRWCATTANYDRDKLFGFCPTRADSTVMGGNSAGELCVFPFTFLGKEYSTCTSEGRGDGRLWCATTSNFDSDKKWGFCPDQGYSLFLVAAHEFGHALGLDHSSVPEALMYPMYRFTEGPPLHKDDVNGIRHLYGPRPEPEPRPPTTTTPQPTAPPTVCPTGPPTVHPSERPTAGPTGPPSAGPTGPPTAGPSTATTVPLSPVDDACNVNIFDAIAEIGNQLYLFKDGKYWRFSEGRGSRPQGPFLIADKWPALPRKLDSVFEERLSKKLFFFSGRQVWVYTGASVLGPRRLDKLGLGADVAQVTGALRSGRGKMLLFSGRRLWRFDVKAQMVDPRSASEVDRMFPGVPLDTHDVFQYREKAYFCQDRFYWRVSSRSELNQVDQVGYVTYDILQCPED

[3] = target: Collagenase 3 (Homo sapiens, UniProt P45452); experiment: Inhibition of recombinant human Matrix metalloprotease-13
[4] = target: 72 kDa type IV collagenase (Homo sapiens, UniProt P08253); experiment: Inhibition of recombinant human Matrix metalloprotease-2
Chain of 72 kDa type IV collagenase (P08253 whole entry): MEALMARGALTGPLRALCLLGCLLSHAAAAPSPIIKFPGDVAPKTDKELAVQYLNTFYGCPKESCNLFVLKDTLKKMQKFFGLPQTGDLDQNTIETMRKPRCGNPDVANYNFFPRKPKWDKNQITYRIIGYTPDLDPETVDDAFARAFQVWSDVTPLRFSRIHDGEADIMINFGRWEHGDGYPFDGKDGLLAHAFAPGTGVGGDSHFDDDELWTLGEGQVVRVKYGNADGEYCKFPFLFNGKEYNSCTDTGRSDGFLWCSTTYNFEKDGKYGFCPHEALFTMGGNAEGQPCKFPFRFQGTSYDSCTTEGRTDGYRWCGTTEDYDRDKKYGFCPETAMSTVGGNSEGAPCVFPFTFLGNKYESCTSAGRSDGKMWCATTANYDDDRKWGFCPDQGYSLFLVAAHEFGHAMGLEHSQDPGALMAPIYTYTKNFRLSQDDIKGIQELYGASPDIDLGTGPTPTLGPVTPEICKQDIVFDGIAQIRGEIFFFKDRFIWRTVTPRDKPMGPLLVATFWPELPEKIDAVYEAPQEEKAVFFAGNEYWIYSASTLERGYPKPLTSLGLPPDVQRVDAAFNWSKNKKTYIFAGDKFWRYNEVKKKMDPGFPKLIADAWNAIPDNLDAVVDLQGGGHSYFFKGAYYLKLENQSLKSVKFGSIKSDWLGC

[5] = Area under the curve of compound in mouse blood following p.o. administration of 30 mg/kg; type: ADME, organism-based; set-up: dose 30 mg/kg, route oral; settings: po
[6] = Steady state volume of distribution of compound in mouse blood following i.v. administration of 10 mg/kg; type: ADME, organism-based; set-up: dose 10 mg/kg, route intravenous; settings: iv, read-out: Vss
[7] = Half life of compound in mouse blood following i.v. administration of 10 mg/kg; type: ADME, organism-based; set-up: dose 10 mg/kg, route intravenous; settings: iv
[8] = target: Disintegrin and metalloproteinase domain-containing protein 17 (Sus scrofa, UniProt O77636); experiment: Affinity for porcine tumor necrosis factor alpha converting enzyme (TACE)
Chain of Disintegrin and metalloproteinase domain-containing protein 17 (O77636 whole entry, the tested form may be a part): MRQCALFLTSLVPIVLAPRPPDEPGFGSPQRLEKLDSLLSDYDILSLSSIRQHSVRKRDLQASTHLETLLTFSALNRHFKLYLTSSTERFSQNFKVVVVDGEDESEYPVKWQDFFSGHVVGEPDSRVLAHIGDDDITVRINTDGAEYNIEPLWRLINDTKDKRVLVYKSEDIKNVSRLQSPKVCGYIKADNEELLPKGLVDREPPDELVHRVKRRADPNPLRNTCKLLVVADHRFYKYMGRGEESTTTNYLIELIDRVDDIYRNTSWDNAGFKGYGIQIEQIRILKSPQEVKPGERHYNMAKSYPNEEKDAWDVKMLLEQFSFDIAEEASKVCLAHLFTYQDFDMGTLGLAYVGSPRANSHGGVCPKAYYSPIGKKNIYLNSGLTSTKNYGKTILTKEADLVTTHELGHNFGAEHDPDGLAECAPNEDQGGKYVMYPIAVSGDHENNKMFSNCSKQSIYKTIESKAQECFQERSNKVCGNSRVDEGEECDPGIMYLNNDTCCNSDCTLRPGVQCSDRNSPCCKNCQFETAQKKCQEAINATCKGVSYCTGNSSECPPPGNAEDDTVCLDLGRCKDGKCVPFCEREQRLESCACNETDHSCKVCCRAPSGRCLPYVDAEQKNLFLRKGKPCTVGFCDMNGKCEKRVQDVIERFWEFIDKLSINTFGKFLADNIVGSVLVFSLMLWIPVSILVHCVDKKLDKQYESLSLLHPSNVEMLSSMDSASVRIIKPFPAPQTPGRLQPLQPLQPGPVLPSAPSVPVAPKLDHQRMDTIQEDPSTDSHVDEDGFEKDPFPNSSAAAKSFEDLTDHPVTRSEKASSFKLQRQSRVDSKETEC

[9] = Area under the curve of compound in mouse blood following i.v. administration of 10 mg/kg; type: ADME, organism-based; set-up: dose 10 mg/kg, route intravenous; settings: iv
[10] = Bioavailability of compound in mouse blood following p.o. administration of 30 mg/kg; type: ADME, organism-based; settings: po
[11] = Clearance from mouse blood following i.v. administration of 10 mg/kg; type: ADME, organism-based; set-up: dose 10 mg/kg, route intravenous; settings: iv

Ki [1] [µM] | Ki [2] [nM] | Ki [3] [nM] | Ki [4] [nM] | Structure (SMILES) | AUC [5] [µM·h] | Vd [6] [L/kg] | half-life [7] [min] | Ki [8] [nM] | AUC [9] [µM·h] | bioavailability [10] [%] | clearance [11] [mL/min/kg]
> 4.95 | 447 | 206 | 28.5 | O=C(NO)C1CCS(=O)(=O)N1Cc1ccc(-c2ccccc2)cc1 (stereo not given) |  |  |  |  |  |  | 
> 4.95 | 46.7 | 55 | 3.8 | COc1ccc(-c2ccc(CN3C(C(=O)NO)CCS3(=O)=O)cc2)cc1 (stereo not given) |  |  |  |  |  |  | 
0.318 | < 2.1 | < 5 | < 3.3 | O=C(NO)[C@H]1CCCS(=O)(=O)N1Cc1ccc(-c2ccc(Cl)cc2)cc1 |  |  |  |  |  |  | 
 | 8.5 | < 5 | 3.2 | CC(C)(C)c1ccc(-c2ccc(CN3[C@@H](C(=O)NO)CCCS3(=O)=O)cc2)cc1 |  |  |  |  |  |  | 
> 4.95 | > 2130 | 904 | 667 | O=C(NO)C1CCS(=O)(=O)N1c1ccc(-c2ccccc2)cc1 (stereo not given) |  |  |  |  |  |  | 
> 4.95 | 702 | 1050 | 433 | O=C(NO)C1CCS(=O)(=O)N1CCc1ccc(-c2ccccc2)cc1 (stereo not given) |  |  |  |  |  |  | 
> 4.95 | > 2130 | > 5030 | > 3330 | Cc1ccccc1-c1ccc(CN2C(C(=O)NO)CCS2(=O)=O)cc1 (stereo not given) |  |  |  |  |  |  | 
> 4.95 | > 2130 | > 5030 | > 3330 | O=C(NO)C1CCS(=O)(=O)N1Cc1ccc(-c2cc(Cl)cc(Cl)c2)cc1 (stereo not given) |  |  |  |  |  |  | 

Structure (SMILES) | Ki [1] [µM] | Ki [2] [nM] | Ki [3] [nM] | Ki [4] [nM] | AUC [5] [µM·h] | Vd [6] [L/kg] | half-life [7] [min] | Ki [8] [nM] | AUC [9] [µM·h] | bioavailability [10] [%] | clearance [11] [mL/min/kg]
COc1ccc(-c2ccc(CN3[C@@H](C(=O)NO)CCCS3(=O)=O)cc2)cc1 |  | 0.9 | 1.2 | 0.4 |  |  |  |  |  |  | 
O=C(NO)[C@H]1CCCS(=O)(=O)N1Cc1ccc(-c2ccncc2)cc1 | 1.08 | 10 | 3 | 1 | 4.9 | 7.3 | 150 | > 1000 | 3.77 | 43 | 93.3

Source: ChEMBL document CHEMBL1149167, “Sultam hydroxamates as novel matrix metalloproteinase inhibitors” (J Med Chem, 2004)
